Patent US20050107423A1, “Quinolone antibacterial agents” (priority 2003, published 2005)
In brackets after ≈: the same amount, converted by molar mass.

Tests used:
Assay in all cases: Antibacterial assay, microtitration MIC (Test A)
Assay type in all cases: cell-based
H. influenzae HI-3542 = conditions: strain HI-3542; for MIC: Haemophilus influenzae, HI3542, Gram Negative Bacteria, read-out: Minimum Inhibitory Concentrations H. influenzae HI-3542
Description: (§1) The compounds of the present invention were tested against an assortment of Gram-negative and Gram-positive organisms using standard microtitration techniques (Cohen et. al., Antimicrob., 1985;28:766; Heifetz, et. al., Antimicrob., 1974;6:124). The results of the evaluation are shown in Tables 1A and B, wherein “-” means no data.

M. catarrhalis BC-3531 = conditions: strain BC-3531; for MIC: Moraxella catarrhalis, BC3531, Gram Negative Bacteria, read-out: Minimum Inhibitory Concentrations M. catarrhalis BC-3531
Description: as §1

E. coli EC-2549 = conditions: strain EC-2549; for MIC: Escherichia coli, EC2549, Gram Negative Bacteria, read-out: Minimum Inhibitory Concentrations E. coli EC-2549
Description: as §1

SMILES | MIC (H. influenzae HI-3542) [µg/mL] | MIC (M. catarrhalis BC-3531) [µg/mL] | MIC (E. coli EC-2549) [µg/mL] | Minimum Inhibitory Concentrations H. influenzae HI-3542 (H. influenzae HI-3542; Gram Negative Bacteria) [µg/mL] | Minimum Inhibitory Concentrations M. catarrhalis BC-3531 (M. catarrhalis BC-3531; Gram Negative Bacteria) [µg/mL] | Minimum Inhibitory Concentrations E. coli EC-2549 (E. coli EC-2549; Gram Negative Bacteria) [µg/mL]
COc1c(N2CCC(CO)C2)c(F)cc2c(=O)c(C(=O)O)cn(C3CC3)c12 (stereo not drawn) [drawing 309] | 0.002 (≈ 0.00531 µM) | 0.004 (≈ 0.0106 µM) | 0.03 (≈ 0.0797 µM) |  |  | 
O=C(O)c1cn(C2CC2)c2c(Cl)c(N3CC(CO)C4(CC4)C3)c(F)cc2c1=O (stereo not drawn) [drawing 421] | 0.004 (≈ 0.00983 µM) | 0.008 (≈ 0.0197 µM) | 0.06 (≈ 0.147 µM) |  |  | 
COc1c(N2CCC(C)(C(O)CC(F)(F)F)C2)c(F)cc2c(=O)c(C(=O)O)cn(C3CC3)c12 (stereo not drawn) [drawing 374] | 0.03 (≈ 0.0635 µM) | 0.03 (≈ 0.0635 µM) | 0.125 (≈ 0.265 µM) |  |  | 
O=C(O)c1cn(C2CC2)c2c(OC(F)F)c(N3CC4CC(O)C(O)C4C3)c(F)cc2c1=O (stereo not drawn) [drawing 448] | 0.03 (≈ 0.066 µM) | 0.06 (≈ 0.132 µM) | 0.5 (≈ 1.1 µM) |  |  | 
Cc1c(N2CCC(C(F)(F)CO)C2)c(F)cc2c(=O)c(C(=O)O)cn(C3CC3)c12 (stereo not drawn) [drawing 335] | 0.015 (≈ 0.0366 µM) | 0.03 (≈ 0.0731 µM) | 0.125 (≈ 0.305 µM) |  |  | 
CCCOC[C@@H]1CN(c2c(F)cc3c(=O)c(C(=O)O)cn(C4CC4)c3c2C)C[C@@H]1CO [drawing 391] | 0.06 (≈ 0.139 µM) | 0.03 (≈ 0.0694 µM) | 0.25 (≈ 0.578 µM) |  |  | 
Nc1c(F)c(N2CCC(C(O)C(F)(F)F)C2)c(F)c2c1c(=O)c(C(=O)O)cn2C1CC1 (stereo not drawn) [drawing 332] | 0.004 (≈ 0.00894 µM) | 0.008 (≈ 0.0179 µM) | 0.06 (≈ 0.134 µM) |  |  | 
COc1c(N2CCC(C(C)O)C2)c(F)cc2c(=O)c(C(=O)O)cn(C3CC3)c12 (stereo not drawn) [drawing 316] | 0.008 (≈ 0.0205 µM) | 0.015 (≈ 0.0384 µM) | 0.125 (≈ 0.32 µM) |  |  | 
O=C(O)c1cn(C2CC2)c2c(Cl)c(N3C[C@@H](CO)[C@@H](CO)C3)c(F)cc2c1=O [drawing 382] | 0.004 (≈ 0.00974 µM) | 0.03 (≈ 0.073 µM) | 0.06 (≈ 0.146 µM) |  |  | 
Cc1c(N2CC(C(O)CO)C3(CC3)C2)c(F)cc2c(=O)c(C(=O)O)cn(C3CC3)c12 (stereo not drawn) [drawing 422] | 0.015 (≈ 0.036 µM) | 0.03 (≈ 0.072 µM) | 0.125 (≈ 0.3 µM) |  |  | 
COc1c(N2CCC(C(O)C3(O)CC3)C2)c(F)cc2c(=O)c(C(=O)O)cn(C3CC3)c12 (stereo not drawn) [drawing 328] | 0.015 (≈ 0.0347 µM) | 0.125 (≈ 0.289 µM) | 0.5 (≈ 1.16 µM) |  |  | 
O=C(O)c1cn(-c2ccc(F)cc2F)c2nc(N3C[C@@H](CO)[C@@H](CO)C3)c(F)cc2c1=O [drawing 379] | 0.03 (≈ 0.0668 µM) | 0.25 (≈ 0.556 µM) | 0.5 (≈ 1.11 µM) |  |  | 
COc1c(N2C[C@H](CO)[C@@H](CO)C2)c(F)cc2c(=O)c(C(=O)O)cn(C3CC3)c12 [drawing 385] | 0.008 (≈ 0.0197 µM) | 0.06 (≈ 0.148 µM) | 0.25 (≈ 0.615 µM) |  |  | 
COc1c(N2CCC(C3(O)CC3)C2)c(F)cc2c(=O)c(C(=O)O)cn(C3CC3)c12 (stereo not drawn) [drawing 327] | 0.03 (≈ 0.0745 µM) | 0.03 (≈ 0.0745 µM) | 0.25 (≈ 0.621 µM) |  |  | 
Cc1c(N2C[C@@H]3CC[C@@](O)(CO)[C@@H]3C2)c(F)cc2c(=O)c(C(=O)O)cn(C3CC3)c12 [drawing 450] | 0.015 (≈ 0.036 µM) | 0.03 (≈ 0.072 µM) | 0.125 (≈ 0.3 µM) |  |  | 
Cc1c(N2CCC(C(O)CO)C2)c(F)cc2c(=O)c(C(=O)O)cn(C3CC3)c12 (stereo not drawn) [drawing 323] | 0.5 (≈ 1.28 µM) | 1 (≈ 2.56 µM) | 4 (≈ 10.2 µM) |  |  | 
Nc1nc(-n2cc(C(=O)O)c(=O)c3cc(F)c(N4CCC(C(O)CO)C4)cc32)c(F)cc1F (stereo not drawn) [drawing 325] | 0.004 (≈ 0.00861 µM) | 0.015 (≈ 0.0323 µM) | 0.06 (≈ 0.129 µM) |  |  | 
O=C(O)c1cn(C2CC2)c2c(OC(F)F)c(N3C[C@@H](CCO)[C@@H](CCO)C3)c(F)cc2c1=O [drawing 397] | 0.06 (≈ 0.128 µM) | 0.125 (≈ 0.266 µM) | 1 (≈ 2.13 µM) |  |  | 
Nc1nc(-n2cc(C(=O)O)c(=O)c3cc(F)c(N4C[C@@H]5CC[C@@H](O)[C@@H]5C4)c(Cl)c32)c(F)cc1F [drawing 444] | 0.03 (≈ 0.0606 µM) | 0.03 (≈ 0.0606 µM) | 0.25 (≈ 0.505 µM) |  |  | 
O=C(O)c1cn(C2CC2)c2c(Cl)c(N3CCC(C(O)C(F)F)C3)c(F)cc2c1=O (stereo not drawn) [drawing 312] | 0.004 (≈ 0.00928 µM) | 0.008 (≈ 0.0186 µM) | 0.06 (≈ 0.139 µM) |  |  | 
O=C(O)c1cn(C2CC2)c2c(Cl)c(N3CCC(C(O)C(F)(F)F)C3)c(F)cc2c1=O (stereo not drawn) | 0.004 (≈ 0.00891 µM) | 0.004 (≈ 0.00891 µM) | 0.06 (≈ 0.134 µM) |  |  | 

SMILES | MIC (H. influenzae HI-3542) [µg/mL] | MIC (M. catarrhalis BC-3531) [µg/mL] | MIC (E. coli EC-2549) [µg/mL] | Minimum Inhibitory Concentrations H. influenzae HI-3542 (H. influenzae HI-3542; Gram Negative Bacteria) [µg/mL] | Minimum Inhibitory Concentrations M. catarrhalis BC-3531 (M. catarrhalis BC-3531; Gram Negative Bacteria) [µg/mL] | Minimum Inhibitory Concentrations E. coli EC-2549 (E. coli EC-2549; Gram Negative Bacteria) [µg/mL]
CC(=O)OC[C@@H]1CN(c2c(F)cc3c(=O)c(C(=O)O)cn(C4CC4)c3c2C)C[C@@H]1COC(C)=O [drawing 392] | 0.125 (≈ 0.263 µM) | 0.06 (≈ 0.126 µM) | 0.5 (≈ 1.05 µM) |  |  | 
COCC(O)C1CCN(c2c(F)cc3c(=O)c(C(=O)O)cn(C4CC4)c3c2C)C1 (stereo not drawn) [drawing 337] | 0.125 (≈ 0.309 µM) | 0.125 (≈ 0.309 µM) | 1 (≈ 2.47 µM) |  |  | 
COc1c(N2CCC(C(O)CO)C2)c(F)cc2c(=O)c(C(=O)O)cn(C3CC3)c12 (stereo not drawn) [drawing 322] | 0.015 (≈ 0.0369 µM) | 0.04 (≈ 0.0984 µM) | 0.03 (≈ 0.0738 µM) |  |  | 
Nc1nc(-n2cc(C(=O)O)c(=O)c3cc(F)c(N4CCC(C(O)C(F)(F)F)C4)c(Cl)c32)c(F)cc1F (stereo not drawn) [drawing 333] | 0.06 (≈ 0.112 µM) | 0.125 (≈ 0.233 µM) | 1 (≈ 1.86 µM) |  |  | 
Cc1c(N2CCC(C(C)O)C2)c(F)cc2c(=O)c(C(=O)O)cn(C3CC3)c12 (stereo not drawn) [drawing 317] |  |  |  | 0.004 | 0.008 | 0.06
CC(O)(CO)C1CCN(c2c(F)cc3c(=O)c(C(=O)O)cn(C4CC4)c3c2Cl)C1 (stereo not drawn) [drawing 339] | 0.16 (≈ 0.377 µM) | 0.03 (≈ 0.0706 µM) | 0.125 (≈ 0.294 µM) |  |  | 
COc1c(N2C[C@@H]3CC[C@@H](O)[C@@H]3C2)c(F)cc2c(=O)c(C(=O)O)cn(C3CC3)c12 [drawing 443] | 0.03 (≈ 0.0745 µM) | 0.03 (≈ 0.0745 µM) | 0.25 (≈ 0.621 µM) |  |  | 
O=C(O)c1cn(C2CC2)c2nc(N3CCC(C(O)C(F)F)C3)c(F)cc2c1=O (stereo not drawn) [drawing 314] | 0.008 (≈ 0.0201 µM) | 0.016 (≈ 0.0403 µM) | 0.125 (≈ 0.315 µM) |  |  | 
Nc1nc(-n2cc(C(=O)O)c(=O)c3cc(F)c(N4CCC(C(O)C(F)F)C4)c(Cl)c32)c(F)cc1F (stereo not drawn) [drawing 313] | 0.008 (≈ 0.0154 µM) | 0.015 (≈ 0.0289 µM) | 0.25 (≈ 0.482 µM) |  |  | 
COc1c(N2CCC(CO)(CO)C2)c(F)cc2c(=O)c(C(=O)O)cn(C3CC3)c12 [drawing 375] | 0.15 (≈ 0.369 µM) | 0.0125 (≈ 0.0308 µM) | 0.5 (≈ 1.23 µM) |  |  | 
COc1c(N2CCC(C(O)C(F)F)C2)c(F)cc2c(=O)c(C(=O)O)cn(C3CC3)c12 (stereo not drawn) [drawing 311] | 0.015 (≈ 0.0352 µM) | 0.03 (≈ 0.0704 µM) | 0.125 (≈ 0.293 µM) |  |  | 
COc1c(N2C[C@@H](CCO)[C@@H](CCO)C2)c(F)cc2c(=O)c(C(=O)O)cn(C3CC3)c12 [drawing 396] | 0.06 (≈ 0.138 µM) | 0.125 (≈ 0.288 µM) | 1 (≈ 2.3 µM) |  |  | 
CC(=O)O[C@@H]1CC[C@H]2CN(c3c(F)cc4c(=O)c(C(=O)O)cn(-c5nc(N)c(F)cc5F)c4c3Cl)C[C@H]21 [drawing 445] | 0.03 (≈ 0.0559 µM) | 0.06 (≈ 0.112 µM) | 0.5 (≈ 0.931 µM) |  |  | 
COCCOCC(O)C1CN(c2c(F)cc3c(=O)c(C(=O)O)cn(C4CC4)c3c2C)CC1(C)C (stereo not drawn) [drawing 424] | 0.5 (≈ 1.05 µM) | 0.25 (≈ 0.525 µM) | 2 (≈ 4.2 µM) |  |  | 
Cc1c(N2CC(CO)C(C)(C)C2)c(F)cc2c(=O)c(C(=O)O)cn(C3CC3)c12 (stereo not drawn) [drawing 418] | 0.015 (≈ 0.0386 µM) | 0.008 (≈ 0.0206 µM) | 0.06 (≈ 0.154 µM) |  |  | 
COc1c(N2C[C@@H]3C[C@@H](O)[C@@H](O)[C@@H]3C2)c(F)cc2c(=O)c(C(=O)O)cn(C3CC3)c12 | 0.015 (≈ 0.0358 µM) | 0.06 (≈ 0.143 µM) | 0.25 (≈ 0.597 µM) |  |  | 
COc1c(N2C[C@@H]3CC[C@@](O)(CO)[C@@H]3C2)c(F)cc2c(=O)c(C(=O)O)cn(C3CC3)c12 [drawing 449] | 0.06 (≈ 0.139 µM) | 0.06 (≈ 0.139 µM) | 0.5 (≈ 1.16 µM) |  |  | 
Cc1c(N2CCC(C(O)C(F)F)C2)c(F)cc2c(=O)c(C(=O)O)cn(C3CC3)c12 (stereo not drawn) [drawing 310] | 0.008 (≈ 0.0195 µM) | 0.008 (≈ 0.0195 µM) | 0.06 (≈ 0.146 µM) |  |  | 
COCC(O)C1CN(c2c(F)cc3c(=O)c(C(=O)O)cn(C4CC4)c3c2C)CC1(C)C (stereo not drawn) [drawing 426] | 0.25 (≈ 0.578 µM) | 0.125 (≈ 0.289 µM) | 1 (≈ 2.31 µM) |  |  | 
Cc1c(N2C[C@@H]3CC[C@@H](O)[C@@H]3C2)c(F)cc2c(=O)c(C(=O)O)cn(C3CC3)c12 [drawing 442] | 0.008 (≈ 0.0207 µM) | 0.008 (≈ 0.0207 µM) | 0.03 (≈ 0.0776 µM) |  |  | 
